Reference: PubChem BioAssay AID248 (DTP/NCI, 2004)
Toxic doses and inconclusive results are not listed. No stated cut-off is given here; in the data, active means T/C of 150% or more; inactive means T/C below 125%.

Tested on: L1210 leukemia ip in BDF1 mice, survival T/C
Assay: NCI In Vivo Anticancer Drug Screen. Data for tumor model L1210 Leukemia (intraperitoneal) in B6D2F1 (BDF1) mice
Settings: endpoint: mean survival time, higher = longer survival
Summary of the method: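 Each compound was tested against a transplantable tumor grown in mice. The endpoint was survival, with treated animals benchmarked against vehicle controls as a simple ratio.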

[1] = dose: 100.0 mg/kg/injection, schedule: Q01DX009 (ip), vehicle: Klucel (hydroxypropylcellulose) (HPC)
[2] = dose: 200.0 mg/kg/injection, schedule: Q01DX009 (ip), vehicle: Klucel (hydroxypropylcellulose) (HPC)
[3] = dose: 100.0 mg/kg/injection, schedule: Q04DX003 (ip), vehicle: Klucel (hydroxypropylcellulose) (HPC)
[4] = dose: 200.0 mg/kg/injection, schedule: Q04DX003 (ip), vehicle: Klucel (hydroxypropylcellulose) (HPC)
[5] = dose: 400.0 mg/kg/injection, schedule: Q01DX009 (ip), vehicle: Klucel (hydroxypropylcellulose) (HPC)
[6] = dose: 100.0 mg/kg/injection, schedule: Q04DX002 (ip), vehicle: saline with Tween-80
[7] = dose: 100.0 mg/kg/injection, schedule: Q01DX009 (ip), vehicle: saline with Tween-80
[8] = dose: 200.0 mg/kg/injection, schedule: Q01DX009 (ip), vehicle: saline with Tween-80
[9] = dose: 400.0 mg/kg/injection, schedule: Q01DX009 (ip), vehicle: saline with Tween-80
[10] = dose: 100.0 mg/kg/injection, schedule: Q01DX001 (ip), vehicle: saline

Measured: T/C

O=C(O)/C=C/C(=O)Nc1ccc([N+](=O)[O-])c(C(F)(F)F)c1
inactive: [1] 107 % of control | [2] 112 % of control

Clc1cc[c]([Sn]([Cl])([c]2ccc(Cl)cc2)[c]2ccc(Cl)cc2)cc1
inactive: dose: 1.56 mg/kg/injection, schedule: Q01DX009 (ip), vehicle: saline 98 % of control | dose: 3.12 mg/kg/injection, schedule: Q01DX009 (ip), vehicle: saline 106 % of control

COc1ccc(C2CCc3cc4c(cc3/C2=N/OC(C)=O)OCO4)cc1OC (stereo not drawn)
inactive: [1] 105 % of control | [3] 102 % of control | [2] 97 % of control | [4] 101 % of control | [5] 92 % of control | dose: 400.0 mg/kg/injection, schedule: Q04DX003 (ip), vehicle: Klucel (hydroxypropylcellulose) (HPC) 101 % of control

O=C(O)c1ccc(OC(F)(F)C(F)Cl)cc1 (stereo not drawn)
inactive: dose: 50.0 mg/kg/injection, schedule: Q01DX009 (ip), vehicle: Klucel (hydroxypropylcellulose) (HPC) 100 % of control | [1] 98 % of control

OC(c1ccc(Br)cc1)C(O)c1ccc(Br)cc1 (stereo not drawn)
inactive: dose: 50.0 mg/kg/injection, schedule: Q04DX002 (ip), vehicle: saline with Tween-80 104 % of control | [6] 104 % of control | dose: 200.0 mg/kg/injection, schedule: Q04DX002 (ip), vehicle: saline with Tween-80 97 % of control

O=[N+]([O-])c1[nH]c(Cl)nc1Cl
inactive: dose: 25.0 mg/kg/injection, schedule: Q01DX001 (ip), vehicle: saline with Tween-80 97 % of control | dose: 50.0 mg/kg/injection, schedule: Q01DX001 (ip), vehicle: saline with Tween-80 103 % of control

O=C(Cc1ccccc1)c1ccccc1
inactive: [7] 93 % of control | [8] 93 % of control | [9] 100 % of control

CCCCCCCCCCCCCCCC(=O)NCC(C)NC(=O)CCCCCCCCCCCCCCC (stereo not drawn)
inactive: dose: 75.0 mg/kg/injection, schedule: Q01DX001 (ip), vehicle: saline 95 % of control | dose: 150.0 mg/kg/injection, schedule: Q01DX001 (ip), vehicle: saline 96 % of control | dose: 300.0 mg/kg/injection, schedule: Q01DX001 (ip), vehicle: saline 103 % of control

O=C(CCCN1CCC2(CC1)OC(=O)N(c1ccccc1)C2=O)c1ccc(F)cc1
inactive: [3] 89 % of control | [4] 106 % of control

C(=N\N=C\c1c[nH]c2ccccc12)/c1c[nH]c2ccccc12
inactive: dose: 100.0 mg/kg/injection, schedule: Q01DX009 (ip), vehicle: gum acacia 87 % of control | dose: 100.0 mg/kg/injection, schedule: Q04DX003 (ip), vehicle: gum acacia 92 % of control | dose: 200.0 mg/kg/injection, schedule: Q01DX009 (ip), vehicle: gum acacia 87 % of control | dose: 200.0 mg/kg/injection, schedule: Q04DX003 (ip), vehicle: gum acacia 89 % of control | dose: 400.0 mg/kg/injection, schedule: Q01DX009 (ip), vehicle: gum acacia 86 % of control | dose: 400.0 mg/kg/injection, schedule: Q04DX003 (ip), vehicle: gum acacia 89 % of control

CCOC1=C(C#N)CC2(CC1)c1ccccc1-c1ccccc12
inactive: [1] 96 % of control | [2] 95 % of control | [5] 95 % of control

NC(=S)N/N=C\c1cc2ccccc2c2ccccc12
inactive: dose: 50.0 mg/kg/injection, schedule: Q01DX001 (ip), vehicle: saline 95 % of control | [10] 95 % of control | dose: 200.0 mg/kg/injection, schedule: Q01DX001 (ip), vehicle: saline 95 % of control | dose: 400.0 mg/kg/injection, schedule: Q01DX001 (ip), vehicle: saline 98 % of control

CCC(C)C(NC(=O)OCc1ccccc1)C(=O)ON1C(=O)CCC1=O (stereo not drawn)
inactive: [7] 94 % of control | [8] 96 % of control

C1CCN(SN2CCCCC2)CC1
inactive: dose: 100.0 mg/kg/injection, schedule: Q01DX009 (ip), vehicle: saline 100 % of control | dose: 200.0 mg/kg/injection, schedule: Q01DX009 (ip), vehicle: saline 102 % of control

CC(C)(C)c1nc2ccc([N+](=O)[O-])cc2[nH]1
inactive: dose: 38.0 mg/kg/injection, schedule: Q01DX009 (ip), vehicle: other 104 % of control | dose: 75.0 mg/kg/injection, schedule: Q01DX001 (ip), vehicle: other 92 % of control | dose: 75.0 mg/kg/injection, schedule: Q04DX003 (ip), vehicle: other 92 % of control | dose: 150.0 mg/kg/injection, schedule: Q01DX001 (ip), vehicle: other 91 % of control | dose: 150.0 mg/kg/injection, schedule: Q04DX003 (ip), vehicle: other 92 % of control | dose: 300.0 mg/kg/injection, schedule: Q01DX001 (ip), vehicle: other 97 % of control

ClCCN(CCCl)c1ccc(C=Nc2ccc(-c3ccccn3)cc2)cc1
inactive: dose: 50.0 mg/kg/injection, schedule: Q01DX001 (ip), vehicle: carboxymethylcellulose (CMC) 102 % of control | dose: 100.0 mg/kg/injection, schedule: Q01DX001 (ip), vehicle: carboxymethylcellulose (CMC) 96 % of control | dose: 200.0 mg/kg/injection, schedule: Q01DX001 (ip), vehicle: carboxymethylcellulose (CMC) 91 % of control | dose: 400.0 mg/kg/injection, schedule: Q01DX001 (ip), vehicle: carboxymethylcellulose (CMC) 100 % of control

CCC(=O)Oc1ccc(/C=N/NC(N)=S)nc1
inactive: [6] 113 % of control

CN(C)C=NC1CCC(C(C)(C)C)CC1 (stereo not drawn)
inactive: dose: 12.5 mg/kg/injection, schedule: Q01DX009 (ip), vehicle: Klucel (hydroxypropylcellulose) (HPC) 96 % of control | dose: 12.5 mg/kg/injection, schedule: Q04DX003 (ip), vehicle: Klucel (hydroxypropylcellulose) (HPC) 103 % of control | dose: 25.0 mg/kg/injection, schedule: Q01DX009 (ip), vehicle: Klucel (hydroxypropylcellulose) (HPC) 102 % of control | dose: 25.0 mg/kg/injection, schedule: Q04DX003 (ip), vehicle: Klucel (hydroxypropylcellulose) (HPC) 95 % of control | dose: 50.0 mg/kg/injection, schedule: Q04DX003 (ip), vehicle: Klucel (hydroxypropylcellulose) (HPC) 93 % of control

Cc1ccccc1C(=O)NCC(=O)O
inactive: [7] 91 % of control | dose: 100.0 mg/kg/injection, schedule: Q04DX003 (ip), vehicle: saline with Tween-80 95 % of control | [8] 91 % of control | dose: 200.0 mg/kg/injection, schedule: Q04DX003 (ip), vehicle: saline with Tween-80 94 % of control | [9] 86 % of control | dose: 400.0 mg/kg/injection, schedule: Q04DX003 (ip), vehicle: saline with Tween-80 98 % of control

CCC[n+]1nsc2ccccc21
inactive: [10] 101 % of control

CC12CCC3c4ccc(Oc5ccccc5N)cc4CCC3C1CCC2=O (stereo not drawn)
inactive: dose: 100.0 mg/kg/injection, schedule: Q01DX001 (sc), vehicle: steriod suspending solution 101 % of control | dose: 200.0 mg/kg/injection, schedule: Q01DX001 (sc), vehicle: steriod suspending solution 95 % of control | dose: 400.0 mg/kg/injection, schedule: Q01DX001 (sc), vehicle: steriod suspending solution 89 % of control
